In patent US11279699B2 (Suzhou Longbiotech Pharmaceuticals Co., Ltd., priority 2016, dated 2022):

How the values were obtained:
Type in all cases: biochemical
JAK3 = JAK3 (Homo sapiens (Human), UniProt P52333); assay: Inhibition of JAK, luminescence kinase assay (ADP-Glo), JAK3; conditions: purified recombinant JAK3
Procedure: (§1) The study of the effect of compounds on the activity of purified recombinant JAK was performed by studying the inhibitory activity of the compounds on JAK from the enzymatic level. The experimental principle is to use a luminescence kinase assay to detect the ADP content produced by the reaction of JAK with the substrate Poly (4:1 Glu, Tyr) peptide: after ADP is converted to ATP, ATP can act as a substrate for the Ultra-Glo luciferase catalytic reaction, producing an optical signal. The luminescence signal is positively correlated with the amount of ADP and kinase activity. Therefore, the inhibitory effect of the compounds on the recombinant JAK was determined by observing the luminescence signal produced by the reaction of JAK and the substrate, and was expressed by IC50.
(§2) Experimental method: 10 different concentrations of compounds were incubated with JAK1, JAK2 and JAK3, respectively, for 60 minutes at 37° C. The substrate and ATP were then added, mixed, and reacted at 37° C. for 50 minutes. 25 μl of ADP-Glo™ was added and mixed for 2 minutes. The reaction was carried out for 50 minutes at room temperature. Further, 50 μl of the detection reagent was added and mixed for 2 minutes, and incubated at room temperature for 50 minutes, and detected by a chemiluminometer.

JAK1 = JAK1 (Homo sapiens (Human), UniProt P23458); assay: Inhibition of JAK, luminescence kinase assay (ADP-Glo), JAK1; conditions: for IC50: purified recombinant JAK1
JAK1, sequence (P23458 whole entry): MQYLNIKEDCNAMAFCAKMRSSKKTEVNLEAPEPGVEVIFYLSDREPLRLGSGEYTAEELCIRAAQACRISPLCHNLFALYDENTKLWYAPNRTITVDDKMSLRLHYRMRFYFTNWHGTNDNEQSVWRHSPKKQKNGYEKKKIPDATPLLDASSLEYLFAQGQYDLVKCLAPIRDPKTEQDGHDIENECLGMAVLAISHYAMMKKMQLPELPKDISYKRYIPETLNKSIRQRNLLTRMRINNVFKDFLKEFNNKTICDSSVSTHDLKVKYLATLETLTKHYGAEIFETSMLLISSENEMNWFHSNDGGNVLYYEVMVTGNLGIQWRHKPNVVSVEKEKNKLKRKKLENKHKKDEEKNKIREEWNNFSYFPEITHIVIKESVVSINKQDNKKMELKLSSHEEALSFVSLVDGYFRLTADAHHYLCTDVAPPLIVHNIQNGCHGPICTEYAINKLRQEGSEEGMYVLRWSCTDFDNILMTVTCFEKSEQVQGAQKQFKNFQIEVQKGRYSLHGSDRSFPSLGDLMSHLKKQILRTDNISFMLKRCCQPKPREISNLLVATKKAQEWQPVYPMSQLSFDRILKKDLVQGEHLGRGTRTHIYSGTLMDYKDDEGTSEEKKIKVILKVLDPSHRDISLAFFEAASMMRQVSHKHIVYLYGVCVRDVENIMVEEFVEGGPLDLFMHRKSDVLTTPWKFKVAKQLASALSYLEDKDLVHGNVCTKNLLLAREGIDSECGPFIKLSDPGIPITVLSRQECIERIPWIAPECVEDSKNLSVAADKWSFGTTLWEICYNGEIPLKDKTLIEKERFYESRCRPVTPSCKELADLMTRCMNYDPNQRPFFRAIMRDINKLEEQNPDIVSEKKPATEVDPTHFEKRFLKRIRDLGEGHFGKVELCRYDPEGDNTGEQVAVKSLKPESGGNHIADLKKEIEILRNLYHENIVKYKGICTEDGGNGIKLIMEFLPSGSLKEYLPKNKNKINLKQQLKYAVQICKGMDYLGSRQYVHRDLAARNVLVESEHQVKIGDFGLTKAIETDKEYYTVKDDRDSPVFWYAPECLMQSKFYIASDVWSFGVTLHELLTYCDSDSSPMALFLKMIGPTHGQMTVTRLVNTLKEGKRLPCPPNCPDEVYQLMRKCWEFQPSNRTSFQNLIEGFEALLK
Procedure: as §1, §2

JAK2 = JAK2 (Homo sapiens (Human), UniProt O60674); assay: Inhibition of JAK, luminescence kinase assay (ADP-Glo), JAK2; conditions: purified recombinant JAK2
JAK2, sequence (O60674 whole entry): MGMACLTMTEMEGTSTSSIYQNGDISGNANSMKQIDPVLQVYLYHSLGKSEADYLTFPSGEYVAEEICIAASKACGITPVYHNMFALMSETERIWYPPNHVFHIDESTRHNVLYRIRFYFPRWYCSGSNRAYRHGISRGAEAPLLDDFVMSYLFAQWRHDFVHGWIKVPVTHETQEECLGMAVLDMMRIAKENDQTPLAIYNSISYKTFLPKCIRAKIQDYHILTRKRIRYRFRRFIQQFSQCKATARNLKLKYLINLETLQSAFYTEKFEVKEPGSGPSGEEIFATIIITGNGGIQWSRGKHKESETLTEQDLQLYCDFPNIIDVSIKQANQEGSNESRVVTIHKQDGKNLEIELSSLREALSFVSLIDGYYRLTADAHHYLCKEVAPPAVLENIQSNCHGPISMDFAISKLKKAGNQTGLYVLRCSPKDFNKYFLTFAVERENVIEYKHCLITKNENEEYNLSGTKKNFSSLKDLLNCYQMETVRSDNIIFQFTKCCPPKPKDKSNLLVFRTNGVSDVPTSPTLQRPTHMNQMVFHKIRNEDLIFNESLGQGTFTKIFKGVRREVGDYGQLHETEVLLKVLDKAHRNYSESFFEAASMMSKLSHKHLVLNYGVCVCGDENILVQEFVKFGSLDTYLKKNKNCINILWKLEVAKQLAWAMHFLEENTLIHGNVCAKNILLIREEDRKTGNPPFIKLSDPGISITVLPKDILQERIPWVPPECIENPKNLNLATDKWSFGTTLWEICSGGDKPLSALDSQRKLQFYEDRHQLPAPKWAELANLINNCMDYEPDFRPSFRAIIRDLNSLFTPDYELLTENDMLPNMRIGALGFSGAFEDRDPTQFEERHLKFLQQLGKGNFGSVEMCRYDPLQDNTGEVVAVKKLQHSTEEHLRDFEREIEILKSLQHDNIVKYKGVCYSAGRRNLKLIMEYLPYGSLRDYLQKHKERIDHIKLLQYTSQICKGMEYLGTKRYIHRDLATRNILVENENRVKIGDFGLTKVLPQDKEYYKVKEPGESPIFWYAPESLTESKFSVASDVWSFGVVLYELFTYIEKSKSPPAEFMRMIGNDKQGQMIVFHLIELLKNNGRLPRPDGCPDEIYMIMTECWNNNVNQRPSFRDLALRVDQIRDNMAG
Procedure: as §1, §2

[1] = Table 2, same experimental conditions

JAK3, sequence (P52333 whole entry): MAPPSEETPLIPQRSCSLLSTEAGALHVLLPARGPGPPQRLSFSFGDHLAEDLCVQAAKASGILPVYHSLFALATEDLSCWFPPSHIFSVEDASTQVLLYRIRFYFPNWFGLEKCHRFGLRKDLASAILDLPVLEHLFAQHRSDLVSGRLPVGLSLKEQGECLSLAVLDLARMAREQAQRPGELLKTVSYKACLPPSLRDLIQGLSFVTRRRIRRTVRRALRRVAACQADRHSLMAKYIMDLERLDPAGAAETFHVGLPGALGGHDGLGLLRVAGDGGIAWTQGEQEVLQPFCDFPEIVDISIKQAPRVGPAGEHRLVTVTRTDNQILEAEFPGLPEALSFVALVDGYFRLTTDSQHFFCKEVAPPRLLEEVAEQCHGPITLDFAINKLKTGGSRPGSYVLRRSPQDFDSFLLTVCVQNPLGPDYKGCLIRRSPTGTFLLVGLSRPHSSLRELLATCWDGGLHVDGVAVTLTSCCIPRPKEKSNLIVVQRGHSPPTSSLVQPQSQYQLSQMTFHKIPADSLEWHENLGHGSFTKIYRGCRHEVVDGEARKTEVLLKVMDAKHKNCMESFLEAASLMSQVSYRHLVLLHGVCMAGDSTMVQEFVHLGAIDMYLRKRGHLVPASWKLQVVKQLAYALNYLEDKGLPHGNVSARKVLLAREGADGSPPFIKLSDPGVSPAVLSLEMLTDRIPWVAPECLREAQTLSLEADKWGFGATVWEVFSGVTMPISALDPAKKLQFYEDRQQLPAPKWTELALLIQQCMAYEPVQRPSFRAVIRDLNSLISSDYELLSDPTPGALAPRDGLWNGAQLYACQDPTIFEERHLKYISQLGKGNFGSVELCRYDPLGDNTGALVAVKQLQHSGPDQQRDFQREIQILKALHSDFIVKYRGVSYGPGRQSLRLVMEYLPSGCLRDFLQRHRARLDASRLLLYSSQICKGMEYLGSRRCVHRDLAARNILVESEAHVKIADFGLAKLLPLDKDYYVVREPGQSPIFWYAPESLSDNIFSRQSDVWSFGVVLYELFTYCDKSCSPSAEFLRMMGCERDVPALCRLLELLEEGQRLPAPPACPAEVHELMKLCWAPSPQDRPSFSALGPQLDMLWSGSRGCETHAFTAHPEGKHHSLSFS

SMILES	IC50 (JAK3; Table 1) [nM]	IC50 (JAK3; [1]) [nM]	inhibitory activity against JAK1 relative to JAK2 (selectivity) (JAK1; JAK1 versus JAK2, from Table 2) [times]	IC50 (JAK1; Table 1) [nM]	IC50 (JAK1; [1]) [nM]	IC50 (JAK2; Table 1) [nM]	IC50 (JAK2; [1]) [nM]
CS(=O)(=O)C1CN(Cc2ccc(-c3cccc4nc(NC(=O)C5CC5)nn34)cc2)C1 [Example 1, N-(5-(4-((3-(methylsulfonyl)azetidin-1-yl)methyl)phenyl)-[1,2,4]triazolo[1,5-a]pyridin-2-yl]cyclopropanecarboxamide]	> 50	2430	10	20 to 50	48	> 50	498
CS(=O)(=O)C1CN(Cc2ccc(-c3cccc4nc(NC(=O)C5CC5)nn34)cc2F)C1 [Example 2, N-(5-(3-fluoro-4-((3-(methylsulfonyl)azetidin-1-yl)methyl)phenyl)-[1,2,4]triazolo[1,5-a]pyridin-2-yl]cyclopropanecarboxamide]				20 to 50			
CS(=O)(=O)C1CN(Cc2c(F)cc(-c3cccc4nc(NC(=O)C5CC5)nn34)cc2F)C1 [Example 3, N-(5-(3,5-difluoro-4-((3-(methylsulfonyl)azetidin-1-yl)methyl)phenyl)-[1,2,4]triazolo[1,5-a]pyridin-2-yl]cyclopropanecarboxamide]	> 50			20 to 50		> 50	
CC(C)C(=O)Nc1nc2cccc(-c3ccc(CN4CC(S(=O)(=O)C5CC5)C4)cc3)n2n1 [Example 5, N-(5-(4-((3-(cyclopropylsulfonyl)azetidin-1-yl)methyl)phenyl)-[1,2,4]triazolo[1,5-a]pyridin-2-yl]isobutyramide]				20 to 50		> 50	
CCS(=O)(=O)C1CN(Cc2ccc(-c3cccc4nc(NC(=O)C(C)C)nn34)cc2)C1 [Example 6, N-(5-(4-((3-(ethylsulfonyl)azetidin-1-yl)methyl)phenyl)-[1,2,4]triazolo[1,5-a]pyridin-2-yl]isobutyramide]	> 50			> 50		> 50	
CCS(=O)(=O)C1CN(Cc2ccc(-c3cccc4nc(NC(=O)C5CC5)nn34)cc2)C1 [Example 7, N-(5-(4-((3-(ethylsulfonyl)azetidin-1-yl)methyl)phenyl)-[1,2,4]triazolo[1,5-a]pyridin-2-yl]cyclopropanecarboxamide]				20 to 50		> 50	
CS(=O)(=O)C1CN(Cc2ccc(-c3cccc4nc(N)nn34)cc2)C1 [Example 8, 5-(4-((3-(methylsulfonyl)azetidin-1-yl)methyl)phenyl)-[1,2,4]triazolo[1,5-a]pyridin-2-ylamine]	20 to 50			20 to 50		> 50	
CS(=O)(=O)C1CN(Cc2ccc(-c3cccn4nc(NC(=O)C5CC5)nc34)cc2)C1 [Example 9, N-(8-(4-((3-(methylsulfonyl)azetidin-1-yl)methyl)phenyl)-[1,2,4]triazolo[1,5-a]pyridin-2-yl]cyclopropanecarboxamide]	> 50			20 to 50		> 50	
O=C(Nc1nc2c(-c3ccc(CN4CC(S(=O)(=O)C5CC5)C4)cc3)cccn2n1)C1CC1 [Example 10, N-(8-(4-((3-(cyclopropylsulfonyl)azetidin-1-yl)methyl)phenyl)-[1,2,4]triazolo[1,5-a]pyridin-2-yl]cyclopropanecarboxamide]	> 50			> 50		> 50	
CCS(=O)(=O)C1CN(Cc2ccc(-c3cccn4nc(NC(=O)C5CC5)nc34)cc2)C1 [Example 11, N-(8-(4-((3-(ethylsulfonyl)azetidin-1-yl)methyl)phenyl)-[1,2,4]triazolo[1,5-a]pyridin-2-yl]cyclopropanecarboxamide]	> 50			20 to 50		> 50	
CC(C)C(=O)Nc1nc2c(-c3ccc(CN4CC(S(C)(=O)=O)C4)cc3)cccn2n1 [Example 12]	> 50			20 to 50		> 50	
CC(C)C(=O)Nc1nc2c(-c3ccc(CN4CC(S(=O)(=O)C5CC5)C4)cc3)cccn2n1 [Example 13, N-(8-(4-((3-(cyclopropylsulfonyl)azetidin-1-yl)methyl)phenyl)-[1,2,4]triazolo[1,5-a]pyridin-2-yl]isobutyramide]	> 50			20 to 50		> 50	
CCS(=O)(=O)C1CN(Cc2ccc(-c3cccn4nc(NC(=O)C(C)C)nc34)cc2)C1 [Example 14, N-(8-(4-((3-(ethylsulfonyl)azetidin-1-yl)methyl)phenyl)-[1,2,4]triazolo[1,5-a]pyridin-2-yl]isobutyramide]	> 50			20 to 50		> 50	
CS(=O)(=O)C1CN(Cc2ccc(-c3cccn4nc(NC(=O)C5CC5)nc34)cc2F)C1 [Example 15, N-(8-(3-fluoro-4-((3-(methylsulfonyl)azetidin-1-yl)methyl)phenyl)-[1,2,4]triazolo[1,5-a]pyridin-2-yl]cyclopropanecarboxamide]				20 to 50			
CS(=O)(=O)C1CN(Cc2c(F)cc(-c3cccn4nc(NC(=O)C5CC5)nc34)cc2F)C1 [Example 16, N-(8-(3,5-difluoro-4-((3-(methylsulfonyl)azetidin-1-yl)methyl)phenyl)-[1,2,4]triazolo[1,5-a]pyridin-2-yl]cyclopropanecarboxamide]	> 50			> 50		> 50	
CS(=O)(=O)C1CN(Cc2ccc(-c3cccn4nc(N)nc34)cc2)C1 [Example 17, 8-(4-((3-(methylsulfonyl)azetidin-1-yl)methyl)phenyl)-[1,2,4]triazolo[1,5-a]pyridin-2-ylamine]	20 to 50			20 to 50		> 50	
CCS(=O)(=O)C1CN(Cc2ccc(-c3cccn4nc(N)nc34)cc2)C1 [Example 18, 8-(4-((3-(ethylsulfonyl)azetidin-1-yl)methyl)phenyl)-[1,2,4]triazolo[1,5-a]pyridin-2-ylamine]	> 50			> 50		> 50	
O=S1(=O)CCN(Cc2ccc(-c3ncnc4[nH]ccc34)cc2)CC1 [Example 19, 4-(4-(7H-pyrrolo[2,3-d]pyrimidin-4-yl)benzyl)thiomorpholine 1,1-dioxide]	> 50			< 20		> 50	
